Assay: Compound was evaluated for its inhibitory potency against Opioid receptor delta 1 of Guinea pig ileum

Structure (SMILES)	IC50
C[C@@H](c1ccc(O)cc1)[C@H](N)C(=O)N[C@H]1C(=O)NCC(=O)N[C@@H](Cc2ccccc2)C(=O)N[C@@H](C(=O)O)C(C)(C)SSC1(C)C	7.18 µM
Cc1cc(O)ccc1C[C@@H](N)C(=O)N[C@H]1C(=O)NCC(=O)N[C@@H](Cc2ccccc2)C(=O)N[C@@H](C(=O)O)C(C)(C)SSC1(C)C	6.61 µM
C[C@H](c1ccc(O)cc1)[C@H](N)C(=O)N[C@H]1C(=O)NCC(=O)N[C@@H](Cc2ccccc2)C(=O)N[C@@H](C(=O)O)C(C)(C)SSC1(C)C	3.4 µM
C[C@H](c1ccc(O)cc1)[C@@H](N)C(=O)N[C@H]1C(=O)NCC(=O)N[C@@H](Cc2ccccc2)C(=O)N[C@@H](C(=O)O)C(C)(C)SSC1(C)C	> 100 µM

Reference: BindingDB's records for doi:10.1021/jm00091a006 (University of Arizona, 1992)
